What was measured:
[1] = as given in US 2004/0202760 and US 2004/0202619; cited from earlier work
[2] = Tasting in the applicant's own investigations; format: in vivo; settings: for Umami-properties: in vivo
[3] = among substituted benzoic amides of WO 2006/099762; cited from earlier work
[4] = Panel tasting in 0.5% American beef extract / beef broth as base (FIG. 1, scores 0 to 6); format: in vivo
Source text: In spider diagram attached as FIG. 1, American beef broth is exemplarily compared as a base, with firstly such a base with an addition of 5 ppm of mixture of cyclopropanecarboxylic acid-((1S,2S,5R)-2-isopropyl-5-methyl-cyclohexyl)-amide (11) and Cyclopropanecarboxylic acid-((1R,2R,5S)-2-isopropyl-5-methyl-cyclohexyl)-amide (12) (mixing ratio of 1:1) and secondly with such a base with an addition of 0.05 wt.-% of MSG.
With the aid of tasting by a panel of trained subjects, the taste of a 0.5% American beef extract as base (light grey line) was compared with the taste of firstly, such a base, to which 5 ppm of mixture consisting of cyclopropanecarboxylic acid-((1S,2S,5R)-2-isopropyl-5-methyl-cyclohexyl)amide (11) and cyclopropanecarboxylic acid-((1R,2R,5S)-2-isopropyl-5-methyl-cyclohexyl)amide (12) was added (solid line), and secondly such a base, to which 0.05 wt.-% of MSG was added (broken line).
The subjects rated the strength of the stated trend of taste by ranking of scores on a scale from 0 (no corresponding taste) to 6 (very strong corresponding taste). The average values of respective scores are illustrated.

CCCCC/C=C\CC/C=C/C(=O)NCC [N-ethyl-E2,Z6-dodecadiene amide]
sensory impression [1]: effect similar to MSG

CC(C)[C@H]1CC[C@H](C)C[C@H]1NC(=O)C1CC1 [(12), Cyclopropanecarboxylic acid-((1R,2R,5S)-2-isopropyl-5-methyl-cyclohexyl)amide]
Umami-properties [2]: interesting and strong Umami-properties

CC(C)[C@@H]1CC[C@@H](C)C[C@@H]1NC(=O)C1CC1 [(11), Cyclopropanecarboxylic acid-((1S,2S,5R)-2-isopropyl-5-methyl-cyclohexyl)amide]
Umami-properties [2]: interesting and strong Umami-properties

COC(=O)c1ccc(C(=O)NC2CC(C)CCC2C(C)C)cc1 (centres unmarked)
cooling effect [3]: strongest ascertained cooling effect

O=C(NC1CCCCC1)C1CC1 [Cyclopropanecarboxylic acid cyclohexyl amide]
creating or enhancing of an Umami taste impression [4]: no creating or enhancing of an Umami taste impression could be verified
taste rating ([2]; tasting in own investigations): taste-neutral

CC/C=C\CC/C=C/C(=O)NC1CC1 [N-cyclopropyl-E2,Z6-nonadiene amide]
sensory impression [1]: effect similar to MSG

CC/C=C\CC/C=C/C(=O)NCC [N-ethyl-E2,Z6-nonadiene amide]
sensory impression [1]: effect similar to MSG
